Columns and labels:
FLT1 = FLT1 (Homo sapiens, UniProt P17948); assay: Kinase selectivity screen FLT1; conditions: read-out: % inhibition of FLT1
MAPK8 = MAPK8 (Homo sapiens, UniProt P45983); assay: Kinase selectivity screen MAPK8; conditions: read-out: % inhibition of MAPK8
MAP3K9 = MAP3K9 (Homo sapiens, UniProt P80192); assay: Kinase selectivity screen MAP3K9; conditions: read-out: % inhibition of MAP3K9
BMX = molecular target: T1, BMX (Homo sapiens, UniProt P51813); assay: Kinase selectivity screen BMX; conditions: read-out: % inhibition of BMX
T1 sequence (P51813 1-675): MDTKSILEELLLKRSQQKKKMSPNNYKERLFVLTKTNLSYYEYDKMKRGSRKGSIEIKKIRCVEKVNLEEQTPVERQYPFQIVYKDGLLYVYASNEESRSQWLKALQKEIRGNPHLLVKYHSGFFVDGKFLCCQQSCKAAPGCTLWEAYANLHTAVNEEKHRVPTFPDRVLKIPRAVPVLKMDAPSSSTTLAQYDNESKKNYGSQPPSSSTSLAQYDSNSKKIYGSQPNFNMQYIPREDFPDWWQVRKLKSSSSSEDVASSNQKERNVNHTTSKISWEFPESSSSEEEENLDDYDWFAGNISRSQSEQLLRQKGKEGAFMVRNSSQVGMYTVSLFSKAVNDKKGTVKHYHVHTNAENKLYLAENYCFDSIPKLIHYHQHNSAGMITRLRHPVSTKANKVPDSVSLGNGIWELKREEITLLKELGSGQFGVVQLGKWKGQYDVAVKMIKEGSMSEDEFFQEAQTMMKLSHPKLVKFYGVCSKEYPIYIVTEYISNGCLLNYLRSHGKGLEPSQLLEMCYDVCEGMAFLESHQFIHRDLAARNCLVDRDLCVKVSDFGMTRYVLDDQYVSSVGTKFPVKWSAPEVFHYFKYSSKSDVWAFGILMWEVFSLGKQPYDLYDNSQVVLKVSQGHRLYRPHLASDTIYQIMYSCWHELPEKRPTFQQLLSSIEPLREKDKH

IGF1R = IGF1R (Homo sapiens, UniProt P08069); assay: Kinase selectivity screen IGF1R; conditions: read-out: % inhibition of IGF1R
DMPK = molecular target: T2, DMPK (Homo sapiens, UniProt Q09013); assay: Kinase selectivity screen DMPK; conditions: read-out: % inhibition of DMPK
T2 sequence (Q09013 1-629): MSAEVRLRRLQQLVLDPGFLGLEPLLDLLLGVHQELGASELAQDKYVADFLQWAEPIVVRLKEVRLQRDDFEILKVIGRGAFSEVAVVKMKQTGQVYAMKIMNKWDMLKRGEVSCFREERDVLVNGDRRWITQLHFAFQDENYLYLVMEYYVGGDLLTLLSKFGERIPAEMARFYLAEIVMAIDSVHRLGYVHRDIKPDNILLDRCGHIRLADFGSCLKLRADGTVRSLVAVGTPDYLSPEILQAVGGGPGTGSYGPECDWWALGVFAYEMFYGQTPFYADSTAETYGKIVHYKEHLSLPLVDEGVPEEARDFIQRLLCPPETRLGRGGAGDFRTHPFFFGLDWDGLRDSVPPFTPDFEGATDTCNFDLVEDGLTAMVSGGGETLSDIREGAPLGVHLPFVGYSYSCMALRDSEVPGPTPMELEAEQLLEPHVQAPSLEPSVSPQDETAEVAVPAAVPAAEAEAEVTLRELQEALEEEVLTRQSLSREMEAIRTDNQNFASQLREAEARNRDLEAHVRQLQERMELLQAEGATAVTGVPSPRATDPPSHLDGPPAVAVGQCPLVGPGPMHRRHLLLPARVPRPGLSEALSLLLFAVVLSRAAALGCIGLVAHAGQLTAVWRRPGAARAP

RET = RET (Homo sapiens, UniProt P07949); assay: Kinase selectivity screen RET; conditions: read-out: % inhibition of RET
Chain of RET (P07949 29-1114, species assumed): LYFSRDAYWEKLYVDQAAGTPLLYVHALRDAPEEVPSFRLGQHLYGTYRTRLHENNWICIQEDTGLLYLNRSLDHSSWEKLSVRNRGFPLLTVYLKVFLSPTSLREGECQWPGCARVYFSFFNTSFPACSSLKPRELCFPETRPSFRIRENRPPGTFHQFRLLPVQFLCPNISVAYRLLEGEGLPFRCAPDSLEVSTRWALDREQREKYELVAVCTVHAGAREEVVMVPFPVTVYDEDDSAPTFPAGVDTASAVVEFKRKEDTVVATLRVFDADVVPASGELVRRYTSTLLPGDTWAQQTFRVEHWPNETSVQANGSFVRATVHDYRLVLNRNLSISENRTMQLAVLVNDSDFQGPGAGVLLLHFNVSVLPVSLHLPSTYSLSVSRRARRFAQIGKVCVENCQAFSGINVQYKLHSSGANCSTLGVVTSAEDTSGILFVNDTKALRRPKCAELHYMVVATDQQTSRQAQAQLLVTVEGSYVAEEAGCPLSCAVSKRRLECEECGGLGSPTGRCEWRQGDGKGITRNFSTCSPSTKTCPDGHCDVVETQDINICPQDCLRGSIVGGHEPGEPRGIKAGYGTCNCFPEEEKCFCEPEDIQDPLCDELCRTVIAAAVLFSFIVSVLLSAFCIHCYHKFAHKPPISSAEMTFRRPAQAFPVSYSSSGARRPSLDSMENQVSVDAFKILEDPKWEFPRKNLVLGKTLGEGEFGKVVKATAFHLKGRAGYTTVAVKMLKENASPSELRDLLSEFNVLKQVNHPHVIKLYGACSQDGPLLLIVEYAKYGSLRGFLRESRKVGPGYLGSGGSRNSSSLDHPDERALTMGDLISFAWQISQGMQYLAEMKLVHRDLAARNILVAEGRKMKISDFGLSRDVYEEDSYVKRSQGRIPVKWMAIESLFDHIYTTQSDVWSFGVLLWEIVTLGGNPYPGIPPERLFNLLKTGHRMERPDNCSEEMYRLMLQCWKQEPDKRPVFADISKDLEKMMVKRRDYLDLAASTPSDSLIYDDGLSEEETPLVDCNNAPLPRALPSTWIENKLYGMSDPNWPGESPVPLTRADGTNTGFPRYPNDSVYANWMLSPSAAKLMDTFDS

PLK1 = PLK1 (Homo sapiens, UniProt P53350); assay: Kinase selectivity screen PLK1; conditions: read-out: % inhibition of PLK1
Chain of PLK1 (P53350 whole entry, species assumed): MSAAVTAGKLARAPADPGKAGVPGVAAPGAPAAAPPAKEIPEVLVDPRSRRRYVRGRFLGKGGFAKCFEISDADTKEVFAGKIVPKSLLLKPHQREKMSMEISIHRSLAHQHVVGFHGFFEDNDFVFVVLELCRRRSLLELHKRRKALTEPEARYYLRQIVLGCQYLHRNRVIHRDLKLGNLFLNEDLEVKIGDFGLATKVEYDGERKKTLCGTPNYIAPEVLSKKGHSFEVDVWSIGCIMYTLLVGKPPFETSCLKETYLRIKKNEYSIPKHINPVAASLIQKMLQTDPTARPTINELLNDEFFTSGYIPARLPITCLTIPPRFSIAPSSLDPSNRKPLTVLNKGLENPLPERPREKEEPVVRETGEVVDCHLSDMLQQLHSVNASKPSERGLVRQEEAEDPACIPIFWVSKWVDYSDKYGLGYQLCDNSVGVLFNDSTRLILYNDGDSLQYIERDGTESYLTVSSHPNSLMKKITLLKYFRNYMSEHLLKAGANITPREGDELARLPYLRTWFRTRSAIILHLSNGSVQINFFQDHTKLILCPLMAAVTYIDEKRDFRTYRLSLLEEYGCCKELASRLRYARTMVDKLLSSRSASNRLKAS

FGFR3 = FGFR3 (Homo sapiens, UniProt P22607); assay: Kinase selectivity screen FGFR3; conditions: read-out: % inhibition of FGFR3
MAP2K1 = MAP2K1 (Homo sapiens, UniProt Q02750); assay: Kinase selectivity screen MAP2K1; conditions: read-out: % inhibition of MAP2K1
Chain of MAP2K1 (Q02750 whole entry, species assumed): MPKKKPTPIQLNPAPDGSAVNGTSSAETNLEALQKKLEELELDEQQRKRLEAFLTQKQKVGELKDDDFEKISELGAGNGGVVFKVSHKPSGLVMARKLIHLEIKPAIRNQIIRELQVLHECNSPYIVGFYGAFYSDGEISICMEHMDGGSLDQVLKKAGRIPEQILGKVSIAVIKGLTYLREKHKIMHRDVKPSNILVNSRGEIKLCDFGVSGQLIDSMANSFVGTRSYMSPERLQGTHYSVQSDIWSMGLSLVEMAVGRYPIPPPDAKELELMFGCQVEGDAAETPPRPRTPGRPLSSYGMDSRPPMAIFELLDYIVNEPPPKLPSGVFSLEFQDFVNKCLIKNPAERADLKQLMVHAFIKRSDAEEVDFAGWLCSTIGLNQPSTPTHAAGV

INSRR = INSRR (Homo sapiens, UniProt P14616); assay: Kinase selectivity screen INSRR; conditions: read-out: % inhibition of INSRR
Chain of INSRR (P14616 27-1297, species assumed): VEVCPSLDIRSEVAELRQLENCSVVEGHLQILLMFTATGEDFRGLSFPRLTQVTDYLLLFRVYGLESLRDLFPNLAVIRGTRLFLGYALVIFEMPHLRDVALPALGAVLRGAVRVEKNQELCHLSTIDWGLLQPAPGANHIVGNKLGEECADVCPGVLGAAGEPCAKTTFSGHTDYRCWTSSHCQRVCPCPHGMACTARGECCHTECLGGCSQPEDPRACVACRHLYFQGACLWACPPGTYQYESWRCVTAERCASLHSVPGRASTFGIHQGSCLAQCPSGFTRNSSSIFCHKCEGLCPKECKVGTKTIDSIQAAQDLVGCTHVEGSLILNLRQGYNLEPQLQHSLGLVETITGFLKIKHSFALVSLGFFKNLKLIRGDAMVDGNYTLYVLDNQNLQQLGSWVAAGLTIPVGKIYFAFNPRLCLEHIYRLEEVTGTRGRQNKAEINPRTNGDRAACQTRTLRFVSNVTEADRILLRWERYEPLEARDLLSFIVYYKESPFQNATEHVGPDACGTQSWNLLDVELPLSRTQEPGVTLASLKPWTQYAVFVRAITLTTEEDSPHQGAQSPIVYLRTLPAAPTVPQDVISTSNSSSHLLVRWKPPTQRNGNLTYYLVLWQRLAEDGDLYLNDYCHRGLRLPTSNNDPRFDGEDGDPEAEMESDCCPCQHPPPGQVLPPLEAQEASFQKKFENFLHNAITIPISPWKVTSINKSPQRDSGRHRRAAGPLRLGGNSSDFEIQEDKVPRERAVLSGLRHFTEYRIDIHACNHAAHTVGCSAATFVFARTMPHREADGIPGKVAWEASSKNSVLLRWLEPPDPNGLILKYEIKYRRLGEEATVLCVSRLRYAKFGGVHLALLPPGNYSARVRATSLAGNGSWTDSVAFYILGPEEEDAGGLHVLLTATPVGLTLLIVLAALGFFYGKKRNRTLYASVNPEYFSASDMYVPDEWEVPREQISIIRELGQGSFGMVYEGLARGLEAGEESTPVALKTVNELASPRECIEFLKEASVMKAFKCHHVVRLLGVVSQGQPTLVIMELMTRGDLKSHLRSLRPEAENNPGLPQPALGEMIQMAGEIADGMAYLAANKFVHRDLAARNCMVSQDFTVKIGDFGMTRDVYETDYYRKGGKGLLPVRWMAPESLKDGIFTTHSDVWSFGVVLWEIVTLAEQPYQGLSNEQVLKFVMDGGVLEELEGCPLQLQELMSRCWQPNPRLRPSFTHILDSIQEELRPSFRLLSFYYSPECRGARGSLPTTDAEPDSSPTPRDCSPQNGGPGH

PRKCE = molecular target: T3, PRKCE (Homo sapiens, UniProt Q02156); assay: Kinase selectivity screen PRKCE; conditions: read-out: % inhibition of PRKCE
T3 sequence (Q02156 1-737): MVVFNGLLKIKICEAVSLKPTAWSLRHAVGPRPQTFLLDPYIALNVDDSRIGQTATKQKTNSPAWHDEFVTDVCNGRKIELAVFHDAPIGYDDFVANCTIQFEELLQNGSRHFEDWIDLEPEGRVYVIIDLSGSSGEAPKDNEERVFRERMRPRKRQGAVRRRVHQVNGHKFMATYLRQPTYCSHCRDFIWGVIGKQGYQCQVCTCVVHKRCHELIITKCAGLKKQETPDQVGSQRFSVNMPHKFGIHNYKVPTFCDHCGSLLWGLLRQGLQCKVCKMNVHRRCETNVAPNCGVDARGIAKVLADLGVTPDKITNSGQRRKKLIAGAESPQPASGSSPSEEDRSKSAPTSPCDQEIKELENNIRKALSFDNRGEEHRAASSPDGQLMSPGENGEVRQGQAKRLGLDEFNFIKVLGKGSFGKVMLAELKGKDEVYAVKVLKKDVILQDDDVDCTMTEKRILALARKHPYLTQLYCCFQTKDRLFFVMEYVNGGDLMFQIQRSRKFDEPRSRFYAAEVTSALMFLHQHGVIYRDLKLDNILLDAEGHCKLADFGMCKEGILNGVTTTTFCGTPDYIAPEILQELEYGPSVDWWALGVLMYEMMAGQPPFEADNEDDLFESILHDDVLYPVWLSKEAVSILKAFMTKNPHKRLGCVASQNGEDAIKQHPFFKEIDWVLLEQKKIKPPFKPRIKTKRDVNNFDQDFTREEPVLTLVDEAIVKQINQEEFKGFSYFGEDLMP

Chain of MAPK8 (P45983 whole entry, species assumed): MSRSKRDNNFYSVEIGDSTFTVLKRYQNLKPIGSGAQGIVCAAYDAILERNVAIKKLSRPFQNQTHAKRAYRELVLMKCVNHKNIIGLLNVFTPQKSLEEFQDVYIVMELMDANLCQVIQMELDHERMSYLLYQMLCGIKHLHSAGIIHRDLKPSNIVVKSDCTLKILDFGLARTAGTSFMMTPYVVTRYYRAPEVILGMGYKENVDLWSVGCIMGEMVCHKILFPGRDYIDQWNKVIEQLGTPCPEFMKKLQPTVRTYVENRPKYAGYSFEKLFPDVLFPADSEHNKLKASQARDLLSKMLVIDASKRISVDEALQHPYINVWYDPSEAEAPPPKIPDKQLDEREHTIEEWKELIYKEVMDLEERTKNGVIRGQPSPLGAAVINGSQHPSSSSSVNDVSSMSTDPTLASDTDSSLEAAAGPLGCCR
Chain of FLT1 (P17948 27-1338, species assumed): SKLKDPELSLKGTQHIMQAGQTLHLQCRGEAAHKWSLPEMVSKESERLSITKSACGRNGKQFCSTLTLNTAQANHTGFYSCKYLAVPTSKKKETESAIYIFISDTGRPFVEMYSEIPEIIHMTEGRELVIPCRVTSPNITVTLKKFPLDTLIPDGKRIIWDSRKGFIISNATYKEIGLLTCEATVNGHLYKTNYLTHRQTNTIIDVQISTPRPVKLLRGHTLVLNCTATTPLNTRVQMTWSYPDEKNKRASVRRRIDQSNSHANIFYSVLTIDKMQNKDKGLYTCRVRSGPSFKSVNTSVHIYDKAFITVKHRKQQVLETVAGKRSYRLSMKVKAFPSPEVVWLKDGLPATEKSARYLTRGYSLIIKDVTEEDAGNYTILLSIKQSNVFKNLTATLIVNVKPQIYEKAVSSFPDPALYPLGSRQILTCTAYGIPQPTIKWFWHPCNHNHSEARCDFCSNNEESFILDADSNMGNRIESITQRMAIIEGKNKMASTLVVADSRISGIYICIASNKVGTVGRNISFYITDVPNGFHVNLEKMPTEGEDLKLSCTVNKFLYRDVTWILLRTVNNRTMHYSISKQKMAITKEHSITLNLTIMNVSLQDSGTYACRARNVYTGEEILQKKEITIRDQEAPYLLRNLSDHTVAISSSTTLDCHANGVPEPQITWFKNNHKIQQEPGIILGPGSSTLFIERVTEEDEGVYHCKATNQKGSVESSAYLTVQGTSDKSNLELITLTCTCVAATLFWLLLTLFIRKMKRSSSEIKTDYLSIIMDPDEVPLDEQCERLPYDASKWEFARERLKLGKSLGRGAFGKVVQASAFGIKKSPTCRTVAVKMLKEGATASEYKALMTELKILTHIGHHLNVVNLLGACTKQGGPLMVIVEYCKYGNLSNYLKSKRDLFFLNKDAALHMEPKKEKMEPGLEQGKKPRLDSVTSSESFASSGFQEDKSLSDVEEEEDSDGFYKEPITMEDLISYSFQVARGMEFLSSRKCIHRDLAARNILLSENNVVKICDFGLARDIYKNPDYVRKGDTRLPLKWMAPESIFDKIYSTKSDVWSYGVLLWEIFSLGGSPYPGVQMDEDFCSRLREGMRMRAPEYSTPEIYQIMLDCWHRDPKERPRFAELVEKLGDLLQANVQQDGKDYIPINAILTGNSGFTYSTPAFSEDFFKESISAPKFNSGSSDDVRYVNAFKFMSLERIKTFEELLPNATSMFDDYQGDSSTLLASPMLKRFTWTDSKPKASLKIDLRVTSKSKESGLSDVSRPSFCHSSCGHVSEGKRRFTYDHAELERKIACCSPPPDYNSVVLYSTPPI

CN(C)CCCNC(=O)c1nc2c(N3CCc4cc(F)ccc43)ncnc2s1 [Example 64, N-[3-(dimethylamino)propyl]-7-(5-fluoroindolin-1-yl)thiazolo[5,4-d]pyrimidine-2-carboxamide]
inhibition at 1 µM (FLT1): 27% | inhibition at 1 µM (MAPK8): 0% | inhibition at 1 µM (MAP3K9): 1% | inhibition at 1 µM (BMX): 6% | inhibition at 1 µM (IGF1R): 0% | inhibition at 1 µM (DMPK): 0% | inhibition at 1 µM (RET): 0% | inhibition at 1 µM (PLK1): 0% | inhibition at 1 µM (FGFR3): 3% | inhibition at 1 µM (MAP2K1): 5% | inhibition at 1 µM (INSRR): 0% | inhibition at 1 µM (PRKCE): 0%

CC(C)Oc1cc(F)ccc1Nc1ncnc2sc(C(=O)NCC3CCNCC3)nc12 [Example 10, 7-(4-fluoro-2-isopropoxy-anilino)-N-(4-piperidylmethyl)thiazolo[5,4-d]pyrimidine-2-carboxamide]
inhibition at 1 µM (FLT1): 12% | inhibition at 1 µM (MAPK8): 5% | inhibition at 1 µM (MAP3K9): 11% | inhibition at 1 µM (BMX): 0% | inhibition at 1 µM (IGF1R): 12% | inhibition at 1 µM (DMPK): 0% | inhibition at 1 µM (RET): 0% | inhibition at 1 µM (PLK1): 0% | inhibition at 1 µM (FGFR3): 0% | inhibition at 1 µM (MAP2K1): 0% | inhibition at 1 µM (INSRR): 10% | inhibition at 1 µM (PRKCE): 4%

O=C(NCC1CCNCC1)c1nc2c(N3CCc4cc(F)ccc43)ncnc2s1 [Example 58, 7-(5-fluoroindolin-1-yl)-N-(4-piperidylmethyl)thiazolo[5,4-d]pyrimidine-2-carboxamide]
inhibition at 1 µM (FLT1): 6% | inhibition at 1 µM (MAPK8): 1% | inhibition at 1 µM (MAP3K9): 24% | inhibition at 1 µM (BMX): 0% | inhibition at 1 µM (IGF1R): 11% | inhibition at 1 µM (DMPK): 0% | inhibition at 1 µM (RET): 0% | inhibition at 1 µM (PLK1): 1% | inhibition at 1 µM (FGFR3): 0% | inhibition at 1 µM (MAP2K1): 7% | inhibition at 1 µM (INSRR): 13% | inhibition at 1 µM (PRKCE): 0%

From US10669284B2, “Fused thiazolopyrimidine derivatives as MNKS inhibitors” (LIFEARC, priority 2015, dated 2020)
